Results taken from patent US9238639B2, “Aromatic ring compound” (TAKEDA PHARMACEUTICAL COMPANY LIMITED, priority 2012, dated 2016).

biological target: T1, human GOAT (Homo sapiens, UniProt Q96T53); test: GOAT enzyme activity measurement by HTRF method (human GOAT-expressing microsome fraction); type: biochemical; conditions: 10 μM compound; human GOAT-expressing Sf9 microsome fraction; octanoyl-CoA and Ghrelin-biotin substrates; 0% control without compound, 100% control without enzyme
T1 construct: made in house; host or cells: Sf9 insect cells (BacToBac baculovirus, pFastBac1 vector); microsome fraction
T1 sequence (Q96T53 1-435): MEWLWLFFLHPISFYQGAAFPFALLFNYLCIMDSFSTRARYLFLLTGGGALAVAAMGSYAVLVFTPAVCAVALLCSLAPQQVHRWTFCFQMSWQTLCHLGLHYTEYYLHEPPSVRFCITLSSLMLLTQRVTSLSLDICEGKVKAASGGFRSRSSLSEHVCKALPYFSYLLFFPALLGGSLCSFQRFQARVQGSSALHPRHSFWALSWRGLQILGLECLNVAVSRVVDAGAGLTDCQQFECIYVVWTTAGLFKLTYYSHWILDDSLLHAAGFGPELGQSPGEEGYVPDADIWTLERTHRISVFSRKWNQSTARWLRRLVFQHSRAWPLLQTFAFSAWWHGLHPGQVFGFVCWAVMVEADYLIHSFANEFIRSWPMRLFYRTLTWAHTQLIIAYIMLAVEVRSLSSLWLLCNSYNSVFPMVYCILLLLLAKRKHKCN
Experimental: Human GOAT (Accession NO: EU518495) cDNA was amplified by PCR including reaction of (1) 98° C., 1 min, (2) 35 repeats of 98° C., 10 sec·65° C., 15 sec·72° C., 80 sec, and (3) 72° C., 5 min, using human stomach cDNA library (Takara Bio) as a template and Pyrobest DNA Polymerase (Takara Bio). The amplified fragment was treated with restriction enzymes, inserted into Stu I/Not I sites of pFastBacl (Invitrogen) by using Ligation High (TOYOBO), and transfected into ECOS JM109 (Nippon Gene) to construct pFB/hGOAT.
Production of Baculovirus and Preparation of Insect Cell Microsome Fraction
For preparation of baculovirus from pFB/hGOAT, BacToBac baculovirus expression system (Invitrogen) was used. The virus titer was measured by Real-Time PCR using SYBR Green (Takara Bio). Sf9 cells were infected with the obtained baculovirus at Multiplicity of Infection (MOI)=0.2, and cultured for 70 hr. The Sf9 cells were recovered, suspended in a suspension buffer (TBS (0.3 M NaCl), 1 mM DTT, 1 mM EDTA, Complete (Roche) (1 tablet/50 mL)), and the cells were disrupted twice on ice at 20000 rpm, 30 sec using a polytron homogenizer. The cell disruption solution was centrifuged at 1000 rpm for 10 min at 4° C., the supernatant was further ultracentrifuged at 40000 rpm for 30 min at 4° C. and the precipitate was recovered. The obtained precipitate was suspended in the suspension buffer used above to give a human GOAT-expressing microsome fraction. The protein level was measured using BCA Protein assay Reagent (PIERCE).
Enzyme Activity Measurement by HTRF Method
A compound solution (2 μL) diluted with an assay buffer containing 50 mM Tris-HCl (pH 7.5), 0.5% TWEEN20, and Complete to 15% DMSO and 90 μg/mL human GOAT-expressing microsome fraction (2 μL) were incubated at room temperature for 20 min, after which a substrate mixed solution (2 μL) containing 30 μM octanoyl-CoA (CHEM-IMPLEX) and 3 μM Ghrelin-biotin ([…]epsilon aminocaproic acid-biotin (Greiner Coutom synthesis)) was added to 384 white small volume plate (Greiner). After reaction for 20 min, 2 μL of citrate buffer (pH3) (mixed solution of 0.1 M citric acid (39.8 mL) and 0.2 M Na2HPO4 (10.2 mL)), 2 μL of 25 nM anti-active ghrelin antibody (produced in mouse), 5 μL of Eu(K)-Anti Mouse IgG Pab (Cis Bio) 100-fold diluted with HTRF detection buffer (Cis Bio) and 5 μL of streptavidin-Xlent (Cis Bio) 66.6-fold diluted with HTRF detection buffer (Cis Bio) were added. After incubation at room temperature for 1 hr or longer, the fluorescence values at 620 nm and 665 nm were measured by Envision (PerkinElmer). The data was calculated [(665 nm signal/620 nm signal)×10^4], and the inhibitory activity against human GOAT was shown by the data where 0% control was without compound, and 100% control was without enzyme.

inhibition at 10 µM	SMILES
93.8%	COC(=O)Cc1csc2cc(OCc3ccc(C(F)(F)F)nc3C)cc(C)c12 [Example 9, Methyl(4-methyl-6-((2-methyl-6-(trifluoromethyl)pyridin-3-yl)methoxy)-1-benzothiophen-3-yl)acetate]
97.4%	COC(=O)Cc1csc2cc(OCc3cc(C)nn3C)cc(Cl)c12 [Example 25, Methyl(4-chloro-6-((1,3-dimethyl-1H-pyrazol-5-yl)methoxy)-1-benzothiophen-3-yl)acetate]
92.8%	CCOC(=O)Cc1csc2cc(OCc3ccc(C)nc3C)ccc12 [Example 3, Ethyl(6-((2,6-dimethylpyridin-3-yl)methoxy)-1-benzothiophen-3-yl)acetate]
103%	Cc1nc(C(F)(F)F)ccc1COc1cc(Cl)c2c(CC(=O)O)c(C)sc2c1 [Example 309, (4-Chloro-2-methyl-6-((2-methyl-6-(trifluoromethyl)pyridin-3-yl)methoxy)-1-benzothiophen-3-yl)acetic acid]
100%	COC(=O)Cc1csc2cc(OCc3cc(C(F)(F)F)nn3C)cc(Cl)c12 [Example 21, Methyl(4-chloro-6-((1-methyl-3-(trifluoromethyl)-1H-pyrazol-5-yl)methoxy)-1-benzothiophen-3-yl)acetate]
96.5%	COC(=O)Cc1csc2cc(OCc3ccc(C)nc3C)cc(Cl)c12 [Example 13, Methyl(4-chloro-6-((2,6-dimethylpyridin-3-yl)methoxy)-1-benzothiophen-3-yl)acetate]
99%	Cc1ccc(COc2ccc3c(CC(=O)O)csc3c2)c(C)n1 [Example 4, (6-((2,6-Dimethylpyridin-3-yl)methoxy)-1-benzothiophen-3-yl)acetic acid]
94%	COC(=O)Cc1csc2c(F)c(OCc3ccc(C(F)(F)F)nc3C)cc(C)c12 [Example 35, Methyl(7-fluoro-4-methyl-6-((2-methyl-6-(trifluoromethyl)pyridin-3-yl)methoxy)-1-benzothiophen-3-yl)acetate]
106%	Cc1nc(C(F)(F)F)ccc1COc1cc(Cl)c2c(CC(=O)O)csc2c1Cl [Example 30, (4,7-Dichloro-6-((2-methyl-6-(trifluoromethyl)pyridin-3-yl)methoxy)-1-benzothiophen-3-yl)acetic acid]

Second part, the molecule before the results:

SMILES	inhibition at 10 µM
Cn1nc(C(F)(F)F)cc1COc1cc(Cl)c2c(CC(=O)O)csc2c1Cl [Example 28, (4,7-Dichloro-6-((1-methyl-3-(trifluoromethyl)-1H-pyrazol-5-yl)methoxy)-1-benzothiophen-3-yl)acetic acid]	105%
Cn1nc(C(F)(F)F)cc1COc1cc(C(F)(F)F)c2c(CC(=O)O)csc2c1 [Example 32, (6-((1-Methyl-3-(trifluoromethyl)-1H-pyrazol-5-yl)methoxy)-4-(trifluoromethyl)-1-benzothiophen-3-yl)acetic acid]	103%
Cn1nc(C(F)(F)F)cc1COc1ccc2c(CC(=O)O)csc2c1 [Example 18, (6-((1-Methyl-3-(trifluoromethyl)-1H-pyrazol-5-yl)methoxy)-1-benzothiophen-3-yl)acetic acid]	98.2%
O=C(O)Cc1csc2cc(SCc3ccc(Cl)cc3Cl)ccc12 [Example 80, (6-((2,4-Dichlorobenzyl)sulfanyl)-1-benzothiophen-3-yl)acetic acid]	99.3%
Cc1nc(C(F)(F)F)ncc1COc1ccc2c(CC(=O)O)csc2c1 [Example 137, (6-((4-Methyl-2-(trifluoromethyl)pyrimidin-5-yl)methoxy)-1-benzothiophen-3-yl)acetic acid]	97.3%
CC(=O)NCC[C@@H]1COc2cc(OCc3ccc(Cl)cc3Cl)ccc21 [Example 197, N-(2-((3S)-6-((2,4-Dichlorobenzyl)oxy)-2,3-dihydro-1-benzofuran-3-yl)ethyl)acetamide]	69%
Cn1nc(C(F)(F)F)cc1COc1cc(F)c2c(CC(=O)O)csc2c1 [Example 303, (4-Fluoro-6-((1-methyl-3-(trifluoromethyl)-1H-pyrazol-5-yl)methoxy)-1-benzothiophen-3-yl)acetic acid]	104%
O=C(O)C1(CO)COc2cc(OCc3ccc(Cl)cc3Cl)ccc21 (stereo not drawn) [Example 279, 6-((2,4-Dichlorobenzyl)oxy)-3-(hydroxymethyl)-2,3-dihydro-1-benzofuran-3-carboxylic acid]	81%
O=C(O)Cc1csc2cc(S(=O)(=O)Cc3ccc(Cl)cc3Cl)ccc12 [Example 83, (6-((2,4-Dichlorobenzyl)sulfonyl)-1-benzothiophen-3-yl)acetic acid]	83%
